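Compound exposure: 48 hours, 5 concentrations, 96-well plates. GI50 is the concentration that inhibits growth by half.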 Calls of active or inactive are those of the source. Rule as the data show it: active = GI50 up to about 1.1 µM and inactive = higher.
Key:
Experiment in all cases: DTP human tumour cell line panel, 48 h
786-0 = test system: 786-0
A498 = test system: A498
A549 = test system: A549
ACHN = test system: ACHN
BT-549 = test system: BT-549
CAKI-1 = test system: CAKI-1
CCRF-CEM = test system: CCRF-CEM
COLO 205 = test system: COLO 205
DU-145 = test system: DU-145
EKVX = test system: EKVX
HCC 2998 = test system: HCC 2998
HCT-116 = test system: HCT-116
HCT-15 = test system: HCT-15
HL-60 = test system: HL-60
HOP-62 = test system: HOP-62
HOP-92 = test system: HOP-92
HT-29 = test system: HT-29
Hs-578T = test system: Hs-578T
IGROV-1 = test system: IGROV-1
K562 = test system: K562
KM12 = test system: KM12
LOX IMVI = test system: LOX IMVI
M14 = test system: M14
MCF7 = test system: MCF7
MDA-MB-231 = test system: MDA-MB-231
MDA-MB-435 = test system: MDA-MB-435
MOLT-4 = test system: MOLT-4
Malme-3M = test system: Malme-3M
NCI-H226 = test system: NCI-H226
NCI-H23 = test system: NCI-H23
NCI-H460 = test system: NCI-H460
NCI-H522 = test system: NCI-H522
NCI/ADR-RES = test system: NCI/ADR-RES
OVCAR-3 = test system: OVCAR-3
OVCAR-4 = test system: OVCAR-4
OVCAR-5 = test system: OVCAR-5
OVCAR-8 = test system: OVCAR-8
PC-3 = test system: PC-3
RPMI-8226 = test system: RPMI-8226
RXF 393 = test system: RXF 393
SF-268 = test system: SF-268
SF-295 = test system: SF-295
SF-539 = test system: SF-539
SK-MEL-2 = test system: SK-MEL-2
SK-MEL-5 = test system: SK-MEL-5
SK-OV-3 = test system: SK-OV-3
SN12C = test system: SN12C
SNB-19 = test system: SNB-19
SR = test system: SR
SW-620 = test system: SW-620
T47D = test system: T47D
TK-10 = test system: TK-10
U-251 = test system: U-251
UACC-257 = test system: UACC-257
UACC-62 = test system: UACC-62
UO-31 = test system: UO-31
SK-MEL-28 = test system: SK-MEL-28
SNB-75 = test system: SNB-75

With `Cc1ccc(OC2CC(n3cnc4c(=O)[nH]c(Br)nc43)OC2Oc2ccc(C)cc2)cc1` (stereo not drawn) as the compound, how does the GI50 (786-0) read?
The GI50 was 26.3 µM (inactive).

What about the GI50 (A498) of the same compound?
Its GI50 is > 100 µM (inactive).

And the GI50 (A549)?
The GI50 was 22.7 µM (inactive).

And the GI50 (ACHN)?
Its GI50 is 19.8 µM (inactive).

And the GI50 (BT-549)?
The GI50 was 26.9 µM (inactive).

What about the GI50 (CAKI-1) of the same compound?
Its GI50 is 24.9 µM (inactive).

And the GI50 (CCRF-CEM)?
The GI50 was 23.1 µM (inactive).

What about the GI50 (COLO 205) of the same compound?
Its GI50 is 31 µM (inactive).

What about the GI50 (DU-145) of the same compound?
Its GI50 is 24.7 µM (inactive).

And the GI50 (EKVX)?
The GI50 was 23.8 µM (inactive).

What about the GI50 (HCC 2998) of the same compound?
The GI50 was 24 µM (inactive).

And the GI50 (HCT-116)?
Its GI50 is 29.2 µM (inactive).

And the GI50 (HCT-15)?
Its GI50 is 30.3 µM.

What about the GI50 (HL-60) of the same compound?
Its GI50 is 30.3 µM (inactive).

And the GI50 (HOP-62)?
Its GI50 is 24.1 µM (inactive).

What about the GI50 (HOP-92) of the same compound?
Its GI50 is 22.4 µM (inactive).

What about the GI50 (HT-29) of the same compound?
The GI50 was 28.6 µM (inactive).

What about the GI50 (Hs-578T) of the same compound?
Its GI50 is 24.5 µM (inactive).

What about the GI50 (IGROV-1) of the same compound?
Its GI50 is 24.4 µM (inactive).

And the GI50 (K562)?
Its GI50 is 17.1 µM (inactive).

What about the GI50 (KM12) of the same compound?
The GI50 was 29 µM (inactive).

What about the GI50 (LOX IMVI) of the same compound?
The GI50 was 26.2 µM (inactive).

What about the GI50 (M14) of the same compound?
Its GI50 is 24.9 µM (inactive).

What about the GI50 (MCF7) of the same compound?
Its GI50 is 23.5 µM (inactive).

And the GI50 (MDA-MB-231)?
The GI50 was 23 µM (inactive).

What about the GI50 (MDA-MB-435) of the same compound?
Its GI50 is 24 µM (inactive).

And the GI50 (MOLT-4)?
Its GI50 is 23.9 µM (inactive).

What about the GI50 (Malme-3M) of the same compound?
The GI50 was 22.9 µM (inactive).

What about the GI50 (NCI-H226) of the same compound?
The GI50 was 34.5 µM (inactive).

And the GI50 (NCI-H23)?
The GI50 was 26.9 µM (inactive).

And the GI50 (NCI-H460)?
The GI50 was 20.6 µM (inactive).

What about the GI50 (NCI-H522) of the same compound?
Its GI50 is 21.2 µM (inactive).

What about the GI50 (NCI/ADR-RES) of the same compound?
The GI50 was 28.7 µM (inactive).

What about the GI50 (OVCAR-3) of the same compound?
The GI50 was 18.5 µM (inactive).

And the GI50 (OVCAR-4)?
The GI50 was 37 µM (inactive).

What about the GI50 (OVCAR-5) of the same compound?
Its GI50 is 21.4 µM (inactive).

What about the GI50 (OVCAR-8) of the same compound?
The GI50 was 25.3 µM (inactive).

What about the GI50 (PC-3) of the same compound?
The GI50 was 22.6 µM (inactive).

What about the GI50 (RPMI-8226) of the same compound?
The GI50 was 34.4 µM (inactive).

What about the GI50 (RXF 393) of the same compound?
Its GI50 is 22.5 µM (inactive).

What about the GI50 (SF-268) of the same compound?
The GI50 was 22.6 µM (inactive).

What about the GI50 (SF-295) of the same compound?
Its GI50 is 21.7 µM (inactive).

What about the GI50 (SF-539) of the same compound?
Its GI50 is 20.2 µM (inactive).

What about the GI50 (SK-MEL-2) of the same compound?
Its GI50 is 26.8 µM (inactive).

And the GI50 (SK-MEL-5)?
The GI50 was 22.4 µM (inactive).

And the GI50 (SK-OV-3)?
Its GI50 is 34.5 µM (inactive).

And the GI50 (SN12C)?
The GI50 was 26.2 µM (inactive).

What about the GI50 (SNB-19) of the same compound?
Its GI50 is 21.5 µM (inactive).

And the GI50 (SR)?
The GI50 was 18.1 µM (inactive).

And the GI50 (SW-620)?
Its GI50 is 44.4 µM (inactive).

And the GI50 (T47D)?
The GI50 was 24.8 µM (inactive).

And the GI50 (TK-10)?
The GI50 was 23.2 µM (inactive).

And the GI50 (U-251)?
Its GI50 is 29.1 µM (inactive).

What about the GI50 (UACC-257) of the same compound?
Its GI50 is 25 µM (inactive).

And the GI50 (UACC-62)?
Its GI50 is 23.7 µM (inactive).

And the GI50 (UO-31)?
Its GI50 is 19.1 µM (inactive).

Which results are given for `CN(C)c1ccc(/C=N/c2ccc(-c3nc4ccccc4o3)cc2)cc1`?
GI50 (786-0): 50.6 µM (inactive); GI50 (A498): 53 µM (inactive); GI50 (A549): 46.9 µM (inactive); GI50 (ACHN): 54.3 µM (inactive); GI50 (BT-549): 32.4 µM (inactive); GI50 (COLO 205): 30.5 µM (inactive); GI50 (DU-145): 52.5 µM (inactive); GI50 (EKVX): 28.6 µM (inactive); GI50 (HCC 2998): 14.7 µM (inactive); GI50 (HCT-116): 53.7 µM (inactive); GI50 (HCT-15): 31.8 µM; GI50 (HL-60): 20.8 µM (inactive); GI50 (HOP-62): 35 µM (inactive); GI50 (HOP-92): 70.3 µM (inactive); GI50 (HT-29): 56.2 µM (inactive); GI50 (Hs-578T): > 100 µM (inactive); GI50 (IGROV-1): 42.6 µM (inactive); GI50 (K562): 36.7 µM (inactive); GI50 (KM12): 31.8 µM (inactive); GI50 (LOX IMVI): 35.2 µM (inactive); GI50 (M14): 58.5 µM (inactive); GI50 (MCF7): 40.9 µM (inactive); GI50 (MDA-MB-231): 53.2 µM (inactive); GI50 (MDA-MB-435): 30.1 µM (inactive); GI50 (MOLT-4): 24.7 µM (inactive); GI50 (Malme-3M): > 100 µM (inactive); GI50 (NCI-H23): 32.7 µM (inactive); GI50 (NCI-H460): 28.8 µM (inactive); GI50 (NCI-H522): 42.3 µM (inactive); GI50 (NCI/ADR-RES): 33.5 µM (inactive); GI50 (OVCAR-3): 20.3 µM (inactive); GI50 (OVCAR-4): 33.5 µM (inactive); GI50 (OVCAR-5): > 100 µM (inactive); GI50 (OVCAR-8): 31.8 µM (inactive); GI50 (PC-3): 29.7 µM (inactive); GI50 (SF-268): 79.1 µM (inactive); GI50 (SF-539): 40.8 µM (inactive); GI50 (SK-MEL-28): 67.8 µM (inactive); GI50 (SK-MEL-2): 30.6 µM (inactive); GI50 (SK-MEL-5): 13 µM (inactive); GI50 (SK-OV-3): 35 µM (inactive); GI50 (SN12C): 60.8 µM (inactive); GI50 (SNB-19): > 100 µM (inactive); GI50 (SNB-75): 54.7 µM (inactive); GI50 (SR): 36 µM (inactive); GI50 (SW-620): 86.3 µM (inactive); GI50 (T47D): 19.4 µM (inactive); GI50 (TK-10): 36.5 µM (inactive); GI50 (U-251): 31.7 µM (inactive); GI50 (UACC-257): 25.5 µM (inactive); GI50 (UACC-62): 38.7 µM (inactive); GI50 (UO-31): 48.8 µM (inactive)

Source: ChEMBL document CHEMBL1201862, “PubChem BioAssay data set” (2004)
